The assay relates to human neurons. Kind of assay: Iron (FeSO4) mediated neurotoxicity screening, MAP-2 positive neurons counted. The following applies: for viability at 10 µM: Homo sapiens, Neuron, read-out: Drug % control (mean): number of neurons normalized to untreated control. The assay is classed as cell-based. As for the experimental part:
Human neurons were isolated from brain tissues of therapeutically aborted 15-20 week old fetuses, in accordance with ethics approval of the University of Calgary ethics committee, after written informed consent of the pregnant donors. Neurons were isolated as previously described (Vecil et al., 2000) brain specimens were washed in phosphate buffered saline (PBS) to remove blood, followed by removal of meninges. […] Thereafter, the digestion was stopped by addition of 4 ml fetal calf serum (FCS). […] Cells were cultured in feeding medium of minimal essential medium (MEM) supplemented with 10% fetal bovine serum (FBS), 1 μM sodium pyruvate, 10 μM glutamine, 1× non-essential amino acids, 0.1% dextrose and 1% penicillin/streptomycin (all culture supplements from Invitrogen, Burlington, Canada). […] For experiments, the neuron-enriched cultures were retrypsinized and cells were plated in poly-L-ornithine pre-coated 96-well plates at a density of 100,000 cells/well in 100 μl of the complete medium supplemented with cytosine arabinoside. […] All conditions were performed in quadruplicates. A day later cells were fixed using 4% paraformaldehyde (PFA) and stored in PBS in 4° C.
Briefly, there were 80 compounds located in specific wells on each plate (e. g. B07). […] Each compound was supplied at a concentration of 10 mM dissolved in DMSO.
After filtering with a 0.2 μm filter, FeSO4 was added to cells in a final concentration of 25-50 μM in a volume of 50 μl medium to the cells. Rotenone was dissolved in dimethyl sulfoxide (DMSO) and used in a final concentration of 10 μM.
Staining was performed at room temperature. A blocking buffer was first introduced for 1 h followed by incubation with primary antibody overnight in 4° C.
Cell nuclei were stained with Hoechst S769121 (nuclear yellow). Cells were stored in 4° C. in the dark before imaging.
Images were taken using the automated ImageXpress® imaging system (Molecular Devices, Sunnyvale, Calif.) through a 10x objective microscope lens, displaying 4 or 9 sites per well. […] Cells were defined according to fluorescence intensity and size at different wavelengths. Data from all sites per well were averaged to one data point.
Neurons were pre-incubated with each compound for 1 h followed by application of FeSO4.

Setting [1] is: drug 10 μM 1 h before FeSO4 25 or 50 μM, MAP-2 neurons after 24 h.

Where a name gives a salt, the structure may show the parent alone. Read-outs that look alike come from different tables or passages of the source.

In the case of `N[C@@H]1C[C@H]1c1ccccc1.N[C@H]1C[C@@H]1c1ccccc1.O=S(=O)(O)O` [TRANYLCYPROMINE SULFATE], the “Drug % control (mean): number of neurons normalized to untreated control” value is reported as 21.59%.
For the compound `Nc1cc(N2CCCCC2)nc(N)[n+]1[O-]` [MINOXIDIL], under setting [1], the viability at 10 µM turned out to be 33.7%.
In the case of `NC(=O)N1c2ccccc2CC(=O)c2ccccc21` [OXCARBAZEPINE], the viability at 10 µM under setting [1] was determined as 38.2%.
On the same count and under the same terms, the result for `NS(=O)(=O)c1cc(C(=O)O)c(NCc2ccco2)cc1Cl` [FUROSEMIDE] reads 3.96%; that for `C=C[C@H]1C[N@@]2CC[C@H]1C[C@H]2[C@H](O)c1ccnc2ccc(OC)cc12` [QUININE SULFATE], 21.3%; that for `CCN(CCO)CCCC(C)Nc1ccnc2cc(Cl)ccc12` (stereo not drawn) [HYDROXYCHLOROQUINE SULFATE], 75.9%.
Same read-out and setting: then `CCOC(=O)N1CCC(=C2c3ccc(Cl)cc3CCc3cccnc32)CC1` [LORATADINE], with 44.3%; and `CC(C)c1nc(N(C)S(C)(=O)=O)nc(-c2ccc(F)cc2)c1/C=C/[C@@H](O)C[C@@H](O)CC(=O)O` [ROSUVASTATIN], with 35.4%; and `CNCCCC12CCC(c3ccccc31)c1ccccc12` [MAPROTILINE HYDROCHLORIDE], with 0.61%.
Same read-out and setting: the result for `C[C@H]1c2cccc(O)c2C(=O)C2=C(O)[C@]3(O)C(=O)C(C(N)=O)=C(O)[C@@H](N(C)C)[C@@H]3[C@@H](O)[C@@H]21` [DOXYCYCLINE HYDROCHLORIDE] reads 12.7%; that for `Cc1cccc(Nc2ccccc2C(=O)O)c1C` [MEFENAMIC ACID], 57.2%.
As for `Cc1c(OCC(F)(F)F)ccnc1C[S+]([O-])c1nc2ccccc2[nH]1` (stereo not drawn) [LANSOPRAZOLE], under setting [1], the viability at 10 µM is 63.9%.
As to CRESOL, the “Drug % control (mean): number of neurons normalized to untreated control” value under setting [1] is 6.04%.
`Clc1cccc(Cl)c1N=C1NCCN1` [CLONIDINE HYDROCHLORIDE]: for the setting “24 h”, the viability at 10 µM turned out to be 7.47%.
Take `CN1CCN(C2=Nc3cc(Cl)ccc3Nc3ccccc32)CC1` [CLOZAPINE]: the viability at 10 µM under setting [1] is 101%.
Consider `OCCN1CCN(CCCN2c3ccccc3Sc3ccc(C(F)(F)F)cc32)CC1` [FLUPHENAZINE HYDROCHLORIDE], for which the viability at 10 µM under setting [1] was 12.1%.
On to `CN(C)CCC(c1ccc(Br)cc1)c1ccccn1` (stereo not drawn) [BROMPHENIRAMINE MALEATE], for which the viability at 10 µM under setting [1] was 79.9%.
Same read-out and setting: the result for `CCC1(C)CC(=O)NC1=O` (stereo not drawn) [ETHOSUXIMIDE] reads 74.3%.
As to `CCCCNC(=O)NS(=O)(=O)c1ccc(C)cc1` [TOLBUTAMIDE], the viability at 10 µM under setting [1] is 9.09%.
Take `CN(C)C(=O)Oc1ccc[n+](C)c1` [PYRIDOSTIGMINE BROMIDE]: the viability at 10 µM under setting [1] came out at 35.8%.
Turning to `CN1[C@@H]2CC[C@H]1C[C@@H](OC(c1ccccc1)c1ccccc1)C2` [BENZTROPINE], the viability at 10 µM (24 h) amounted to 11.4%.
For `CC(C)(Oc1ccc(CCNC(=O)c2ccc(Cl)cc2)cc1)C(=O)O` [BEZAFIBRATE], under setting [1], the viability at 10 µM was 35.5%.
For `Clc1ccccc1C(c1ccccc1)(c1ccccc1)n1ccnc1` [CLOTRIMAZOLE], under setting [1], the viability at 10 µM is 12.4%.
On the same count and under the same terms, then `C=CCN1CC[C@]23c4c5ccc(O)c4O[C@H]2C(=O)CC[C@@]3(O)[C@H]1C5` [NALOXONE HYDROCHLORIDE], with 69.5%; and `COc1c(C)c2c(c(O)c1C/C=C(\C)CCC(=O)O)C(=O)OC2` [MYCOPHENOLIC ACID], with 45.7%.
Still for that read-out and setting: then `CCn1cc(C(=O)O)c(=O)c2cc(F)c(N3CCNCC3)cc21` [NORFLOXACIN], with 13.6%.
As to `CO[C@H]1/C=C/O[C@@]2(C)Oc3c(C)c(O)c4c(O)c(c(/C=N/N5CCN(C)CC5)c(O)c4c3C2=O)NC(=O)/C(C)=C\C=C\[C@H](C)[C@H](O)[C@@H](C)[C@@H](O)[C@@H](C)[C@H](OC(C)=O)[C@@H]1C` [RIFAMPIN], the viability at 10 µM (24 h) is 95.5%.
Take `CC(=O)N[C@@H](CS)C(=O)O` [ACETYLCYSTEINE]: under setting [1], the viability at 10 µM was 21.7%.
For the compound `O=P1(N(CCCl)CCCl)NCCCO1` (stereo not drawn) [CYCLOPHOSPHAMIDE HYDRATE], the viability at 10 µM (24 h) amounted to 6.39%.
For the compound `Cc1cnc(NC(=O)C2=C(O)c3ccccc3S(=O)(=O)N2C)s1` [MELOXICAM], the viability at 10 µM under setting [1] came to 59.5%.
For `CCCc1nn(C)c2c(=O)[nH]c(-c3cc(S(=O)(=O)N4CCN(C)CC4)ccc3OCC)nc12`, the viability at 10 µM under setting [1] was 49.3%.
With `CCCN(CCC)S(=O)(=O)c1ccc(C(=O)O)cc1` [PROBENECID], under setting [1], the viability at 10 µM is 71.5%.
The same measure, in the same setting: the result for `CC(C(=O)O)c1cccc(C(=O)c2ccccc2)c1` (stereo not drawn) [KETOPROFEN] reads 44.3%; that for `CN/C(=N/CCSCc1nc[nH]c1C)NC#N` [CIMETIDINE], 34.4%; that for `CN1CCN(C2=Nc3ccccc3Oc3ccc(Cl)cc32)CC1` [LOXAPINE SUCCINATE], 65.9%.
Regarding `CN(C)c1nc(N(C)C)nc(N(C)C)n1` [ALTRETAMINE], the viability at 10 µM under setting [1] came out at 4.2%.
Same read-out and setting: then `COc1ccccc1OCC(O)COC(N)=O` (stereo not drawn) [METHOCARBAMOL], with 0.84%; and `Oc1ncnc2[nH]ncc12` [ALLOPURINOL], with 25.5%.
As to `CO[C@H]1/C=C/O[C@@]2(C)Oc3c(C)c(O)c4c(O)c(c5c(nc6cc(C)ccn65)c4c3C2=O)NC(=O)/C(C)=C\C=C\[C@H](C)[C@H](O)[C@@H](C)[C@@H](O)[C@@H](C)[C@H](OC(C)=O)[C@@H]1C` [RIFAXIMIN], the viability at 10 µM under setting [1] was determined as 53.8%.
The same measure, in the same setting: then `CN(CCOc1ccc(CC2SC(=O)NC2=O)cc1)c1ccccn1` (stereo not drawn) [ROSIGLITAZONE], with 77.6%.
On the same count and under the same terms, then `O=C1C(O)=C([C@H]2CC[C@H](c3ccc(Cl)cc3)CC2)C(=O)c2ccccc21` [ATOVAQUONE], with 67.7%; and `CNCCC(Oc1ccc(C(F)(F)F)cc1)c1ccccc1` (stereo not drawn) [FLUOXETINE], with 81.4%.
`CC(=O)Nc1nnc(S(N)(=O)=O)s1` [ACETAZOLAMIDE]: the viability at 10 µM under setting [1] turned out to be 23.6%.
Consider `COc1ccc2cc(CCC(C)=O)ccc2c1` [NABUMETONE], for which the viability at 10 µM under setting [1] is 48.9%.
Same read-out and setting: then `CN(C)C(=O)Oc1cccc([N+](C)(C)C)c1` [NEOSTIGMINE BROMIDE], with 44.8%.
Consider `COC(=O)Nc1nc2ccc(C(=O)c3ccccc3)cc2[nH]1` [MEBENDAZOLE], for which, under setting [1], the viability at 10 µM was 2.48%.
As for `CCCCCCc1ccc(O)cc1O` [HEXYLRESORCINOL], the viability at 10 µM under setting [1] came to 71.5%.
Same read-out and setting: the result for `CC(=O)Nc1ccc(O)cc1` [ACETAMINOPHEN] reads 35.1%.
On the same count and under the same terms, the result for `COCCOC(=O)C1=C(C)NC(C)=C(C(=O)OC(C)C)C1c1cccc([N+](=O)[O-])c1` (stereo not drawn) [NIMODIPINE] reads 62.8%.
Take `CC[C@H](C)C(=O)O[C@H]1C[C@@H](C)C=C2C=C[C@H](C)[C@H](CC[C@@H]3C[C@@H](O)CC(=O)O3)[C@H]21` [LOVASTATIN]: the viability at 10 µM (24 h) was found to be 32.2%.
With `CC(=O)S[C@@H]1CC2=CC(=O)CC[C@]2(C)[C@H]2CC[C@@]3(C)[C@@H](CC[C@@]34CCC(=O)O4)[C@H]12` [SPIRONOLACTONE], the viability at 10 µM under setting [1] was 37.1%.
On to `NC[C@@H]1O[C@H](O[C@H]2[C@@H](O)[C@H](O[C@@H]3[C@@H](O)[C@H](N)C[C@H](N)[C@H]3O[C@H]3O[C@H](CO)[C@@H](O)[C@H](O)[C@H]3N)O[C@@H]2CO)[C@H](N)[C@@H](O)[C@@H]1O` [PAROMOMYCIN SULFATE], for which the viability at 10 µM under setting [1] was determined as 35.3%.
Consider `CCOc1nc2cccc(C(=O)OC(C)OC(=O)OC3CCCCC3)c2n1Cc1ccc(-c2ccccc2-c2nn[nH]n2)cc1` (stereo not drawn) [CANDESARTAN CILEXTIL], for which, under setting [1], the “Drug % control (mean): number of neurons normalized to untreated control” value is 35.48%.
Consider `CC1=C(C(=O)O)N2C(=O)[C@@H](NC(=O)[C@H](N)c3ccccc3)[C@H]2SC1` [CEPHALEXIN], for which, where the note is “24 h”, the viability at 10 µM was determined as 38.9%.
As for `CC(C)c1c(C(=O)Nc2ccccc2)c(-c2ccccc2)c(-c2ccc(F)cc2)n1CC[C@@H](O)C[C@@H](O)CC(=O)[O-].CC(C)c1c(C(=O)Nc2ccccc2)c(-c2ccccc2)c(-c2ccc(F)cc2)n1CC[C@@H](O)C[C@@H](O)CC(=O)[O-].[Ca+2]` [ATORVASTATIN CALCIUM], under setting [1], the “Drug % control (mean): number of neurons normalized to untreated control” value came to 68.87%.
As for `CCc1cccc2c3c([nH]c12)C(CC)(CC(=O)O)OCC3` (stereo not drawn) [ETODOLAC], the viability at 10 µM under setting [1] came to 34.4%.
Still for that read-out and setting: the result for `CN(C)CCOC(c1ccccc1)c1ccccc1` [DIPHENHYDRAMINE HYDROCHLORIDE] reads 74.7%; that for `CC(C)Cc1ccc(C(C)C(=O)O)cc1` (stereo not drawn) [IBUPROFEN], 2.48%.
As for `NC12CC3CC(CC(C3)C1)C2` [AMANTADINE HYDROCHLORIDE], under setting [1], the viability at 10 µM was 52.6%.
Same read-out and setting: then `CCOC(=O)[C@H](CCc1ccccc1)N[C@H]1CCc2ccccc2N(CC(=O)O)C1=O` [BENAZEPRIL HYDROCHLORIDE], with 72.2%.

The values are drawn from patent US20210393645A1, “TREATMENT FOR PROGRESSIVE MULTIPLE SCLEROSIS” (UTI LIMITED PARTNERSHIP, priority 2016, published 2021).
